Source: ChEMBL document CHEMBL3352305, “Podoverine A--a novel microtubule destabilizing natural product from the Podophyllum species” (Bioorg Med Chem, 2014)
Calls of active or inactive are those of the source. No cut-off for these calls is given here.

What was measured:
HeLa [1] = experiment: Cell cycle arrest in human HeLa cells assessed as 4N stage DNA at 1 uM for 20 hrs by PI staining/FACS analysis (reference value: 24.8 no unit); type: functional
HeLa [2] = experiment: Cell cycle arrest in human HeLa cells assessed as <2N stage DNA at 1 uM for 20 hrs by PI staining/FACS analysis (reference value: 2.19 no unit); type: functional
HeLa [3] = experiment: Cell cycle arrest in human HeLa cells assessed as 2N stage DNA at 1 uM for 20 hrs by PI staining/FACS analysis (reference value: 58 no unit); type: functional
MCF7 [4] = experiment: Cell cycle arrest in human MCF7 cells assessed as <2N stage DNA at 1 uM for 20 hrs by PI staining/FACS analysis (reference value: 0.39 no unit); type: functional
[5] = Cell cycle arrest in human PC3 cells assessed as 4N stage DNA at 1 uM for 20 hrs by PI staining/FACS analysis (Rvb =34.4 no unit); type: functional, cell-based; settings: PC-3
MCF7 [6] = experiment: Cell cycle arrest in human MCF7 cells assessed as >4N stage DNA at 1 uM for 20 hrs by PI staining/FACS analysis (Rvb =23.8 no unit); type: functional
[7] = Cell cycle arrest in human PC3 cells assessed as <2N stage DNA at 1 uM for 20 hrs by PI staining/FACS analysis (reference value: 0.59 no unit); type: functional, cell-based; settings: PC-3
[8] = Cell cycle arrest in human PC3 cells assessed as 2N stage DNA at 1 uM for 20 hrs by PI staining/FACS analysis (reference value: 42 no unit); type: functional, cell-based; settings: PC-3
[9] = Cell cycle arrest in human PC3 cells assessed as >4N stage DNA at 1 uM for 20 hrs by PI staining/FACS analysis (Rvb =23 no unit); type: functional, cell-based; settings: PC-3
MCF7 [10] = experiment: Cell cycle arrest in human MCF7 cells assessed as 4N stage DNA at 1 uM for 20 hrs by PI staining/FACS analysis (Rvb =40.8 no unit); type: functional
HeLa [11] = experiment: Cell cycle arrest in human HeLa cells assessed as >4N stage DNA at 1 uM for 20 hrs by PI staining/FACS analysis (reference value: 14.2 no unit); type: functional
MCF7 [12] = experiment: Cell cycle arrest in human MCF7 cells assessed as 2N stage DNA at 1 uM for 20 hrs by PI staining/FACS analysis (reference value: 31.6 no unit); type: functional
HeLa [13] = experiment: Mitotic arrest in human HeLa cells assessed as increase in accumulation at G2/M phase at 1 uM for 24 hrs by PI staining/FACS analysis; type: functional, cell-based
HeLa [14] = experiment: Mitotic arrest in human HeLa cells assessed as increase in accumulation at G2/M phase at 5 uM for 24 hrs by PI staining/FACS analysis; type: functional, cell-based
HeLa [15] = experiment: Mitotic arrest in human HeLa cells assessed as accumulation of round cells with intense stained tubulin and DNA structures at 3 uM for 20 hrs by FITC/TRITC staining; type: functional, cell-based
MCF7 [16] = experiment: Cell cycle arrest in human MCF7 cells assessed as 2N stage DNA at 5 uM for 20 hrs by PI staining/FACS analysis (reference value: 31.6 no unit); type: functional
HeLa [17] = experiment: Mitotic arrest in human HeLa cells assessed as structure at 3 uM for 60 mins and measured after 20 hrs of washout and applied 3 uM after washout by FITC staining; type: functional, cell-based
HeLa [18] = experiment: Cell cycle arrest in human HeLa cells assessed as 4N stage DNA at 5 uM for 20 hrs by PI staining/FACS analysis (reference value: 24.8 no unit); type: functional
[19] = Cell cycle arrest in human PC3 cells assessed as 4N stage DNA at 5 uM for 20 hrs by PI staining/FACS analysis (Rvb =34.4 no unit); type: functional, cell-based; settings: PC-3
HeLa [20] = experiment: Mitotic arrest in human HeLa cells assessed as structure at 3 uM for 60 mins and measured after 20 hrs of washout by FITC staining; type: functional, cell-based
MCF7 [21] = experiment: Cell cycle arrest in human MCF7 cells assessed as <2N stage DNA at 5 uM for 20 hrs by PI staining/FACS analysis (reference value: 0.39 no unit); type: functional
Tubulin (Homo sapiens) [22] = target: T1, Tubulin (Homo sapiens) (UniProt P68371+Q9H4B7+P0DPH7+P68366+Q13509+Q71U36+P04350+Q3ZCM7+P07437+P68363+Q9BQE3+Q6PEY2+Q13885+Q9BVA1+Q9BUF5); experiment: Displacement of colchicine from tubulin (unknown origin) by FITC staining; type: protein-complex assay
Tubulin (Homo sapiens) [23] = target: T1, Tubulin (Homo sapiens); experiment: (§1) Displacement of BODIPY-FL-vinblastine from tubulin (unknown origin); type: protein-complex assay
Tubulin = experiment: as §1; type: protein-complex assay, Homo sapiens
[24] = Cell cycle arrest in human PC3 cells assessed as >4N stage DNA at 5 uM for 20 hrs by PI staining/FACS analysis (Rvb =23 no unit); type: functional, cell-based; settings: PC-3
BSC-1 [25] = experiment: Mitotic arrest in African green monkey BSC1 cells assessed as accumulation of round cells with intense stained tubulin and DNA structures at 3 uM for 20 hrs by FITC/TRITC staining; type: functional, cell-based; settings: Chlorocebus aethiops
MCF7 [26] = experiment: Cell cycle arrest in human MCF7 cells assessed as >4N stage DNA at 5 uM for 20 hrs by PI staining/FACS analysis (Rvb =23.8 no unit); type: functional
BSC-1 [27] = experiment: Inhibition of repolymerization of microtubule in cold treated African green monkey BSC1 cells at 5 uM for 20 hrs by DAPI staining; type: cell-based; settings: Chlorocebus aethiops
[28] = Cell cycle arrest in human PC3 cells assessed as 2N stage DNA at 5 uM for 20 hrs by PI staining/FACS analysis (reference value: 42 no unit); type: functional, cell-based; settings: PC-3
HeLa [29] = experiment: Cell cycle arrest in human HeLa cells assessed as 2N stage DNA at 5 uM for 20 hrs by PI staining/FACS analysis (reference value: 58 no unit); type: functional
HeLa [30] = experiment: Mitotic arrest in human HeLa cells assessed as cells devoid of mitotic spindles at 3 uM for 20 hrs by FITC/TRITC staining; type: functional, cell-based
HeLa [31] = experiment: Cell cycle arrest in human HeLa cells assessed as >4N stage DNA at 5 uM for 20 hrs by PI staining/FACS analysis (reference value: 14.2 no unit); type: functional
Tubulin (Sus scrofa) = Tubulin (Sus scrofa) (UniProt P02554+P02550); experiment: Inhibition of porcine brain tubulin polymerization at 50 uM by turbidity assay
Tubulin (Sus scrofa), sequence (P02550 whole entry, looked up): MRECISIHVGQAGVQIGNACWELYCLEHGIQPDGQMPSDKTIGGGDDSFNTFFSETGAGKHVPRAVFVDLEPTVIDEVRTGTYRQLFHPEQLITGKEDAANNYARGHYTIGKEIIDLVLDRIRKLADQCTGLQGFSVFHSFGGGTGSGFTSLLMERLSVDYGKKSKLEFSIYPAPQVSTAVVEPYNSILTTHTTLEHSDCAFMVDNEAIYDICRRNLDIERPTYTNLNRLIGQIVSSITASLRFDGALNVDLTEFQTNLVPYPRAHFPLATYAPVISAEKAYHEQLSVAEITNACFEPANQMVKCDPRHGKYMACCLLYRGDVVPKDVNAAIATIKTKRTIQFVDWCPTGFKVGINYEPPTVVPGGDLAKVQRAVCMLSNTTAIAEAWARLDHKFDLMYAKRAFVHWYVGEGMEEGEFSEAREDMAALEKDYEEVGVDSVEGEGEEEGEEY
Tubulin (Sus scrofa), sequence (P02554 whole entry, looked up): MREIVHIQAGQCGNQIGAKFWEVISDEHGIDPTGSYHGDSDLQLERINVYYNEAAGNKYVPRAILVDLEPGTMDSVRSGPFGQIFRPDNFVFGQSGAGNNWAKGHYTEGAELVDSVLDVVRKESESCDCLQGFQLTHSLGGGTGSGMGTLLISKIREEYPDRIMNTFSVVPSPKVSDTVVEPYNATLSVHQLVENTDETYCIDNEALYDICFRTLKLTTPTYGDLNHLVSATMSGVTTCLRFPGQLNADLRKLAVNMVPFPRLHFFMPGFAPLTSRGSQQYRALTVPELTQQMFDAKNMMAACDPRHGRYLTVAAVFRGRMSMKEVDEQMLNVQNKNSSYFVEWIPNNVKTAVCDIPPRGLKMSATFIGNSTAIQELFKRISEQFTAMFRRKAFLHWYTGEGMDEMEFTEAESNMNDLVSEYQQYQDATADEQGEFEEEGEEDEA

HeLa [32] = experiment: Mitotic arrest in human HeLa cells assessed as cells with condensed chromosomes not aligned to metaphase plate at 3 uM for 20 hrs by FITC/TRITC staining; type: functional, cell-based
[33] = Cell cycle arrest in human PC3 cells assessed as <2N stage DNA at 5 uM for 20 hrs by PI staining/FACS analysis (reference value: 0.59 no unit); type: functional, cell-based; settings: PC-3
HeLa [34] = experiment: Cytotoxicity against human HeLa cells assessed as inhibition of cell viability after 24 hrs by WST1 assay; type: functional, cell-based
MCF7 [35] = experiment: Cell cycle arrest in human MCF7 cells assessed as 4N stage DNA at 5 uM for 20 hrs by PI staining/FACS analysis (Rvb =40.8 no unit); type: functional
HeLa [36] = experiment: Cell cycle arrest in human HeLa cells assessed as <2N stage DNA at 5 uM for 20 hrs by PI staining/FACS analysis (reference value: 2.19 no unit); type: functional

COC(=O)Nc1nc2cc(C(=O)c3cccs3)ccc2[nH]1 [NOCODAZOLE]
Flu intensity (HeLa [1]): 64.7 | Flu intensity (HeLa [2]): 9.75 | Flu intensity (HeLa [3]): 8.61 | Flu intensity (MCF7 [4]): 0.72 | Flu intensity [5]: 51.7 | Flu intensity (MCF7 [6]): 30.7 | Flu intensity [7]: 10.7 | Flu intensity [8]: 7.64 | Flu intensity [9]: 29.4 | Flu intensity (MCF7 [10]): 57.5 | Flu intensity (HeLa [11]): 16.9 | Flu intensity (MCF7 [12]): 9.16 | Activity (HeLa [13]): Active

COc1c(-c2ccc(O)c(O)c2CC=C(C)C)oc2cc(O)cc(O)c2c1=O
Activity (HeLa [14]): Active | Activity (HeLa [15]): Active | Flu intensity (MCF7 [16]): 9.57 | Flu intensity (HeLa [1]): 40.2 | Activity (HeLa [17]): Active | Flu intensity (HeLa [18]): 58.2 | Flu intensity (HeLa [2]): 5.6 | Flu intensity [19]: 47.5 | Activity (HeLa [20]): inactive | Flu intensity (MCF7 [21]): 2 | Flu intensity (HeLa [3]): 40.4 | Activity (Tubulin (Homo sapiens) [22]): inactive | inhibition (Tubulin (Homo sapiens) [23]): Dose-dependent effect | EC50 (Tubulin): 14.7 µM | Flu intensity (MCF7 [4]): 1.07 | Flu intensity [5]: 42 | Flu intensity [24]: 30.8 | Activity (BSC-1 [25]): Active | Flu intensity (MCF7 [6]): 29.6 | Flu intensity (MCF7 [26]): 27 | Flu intensity [7]: 2.23 | inhibition (BSC-1 [27]): Active | Flu intensity [28]: 9.24 | Flu intensity [8]: 27.6 | Flu intensity (HeLa [29]): 9.6 | Activity (HeLa [30]): Active | Flu intensity (HeLa [31]): 21.8 | inhibition (Tubulin (Sus scrofa)): Active | Activity (HeLa [32]): Active | Flu intensity [33]: 12.6 | Flu intensity [9]: 26.5 | IC50 (HeLa [34]): 0.79 µM | inhibition (HeLa [34]): Dose-dependent effect | Flu intensity (MCF7 [35]): 61.5 | Flu intensity (MCF7 [10]): 36.3 | Flu intensity (HeLa [11]): 13.8 | Flu intensity (MCF7 [12]): 32 | Flu intensity (HeLa [36]): 9.84
